Usually melting point stands for the temperature of the solid-liquid transition.

`O=C(O)CCSCC(=O)c1ccc2[nH]c(=O)[nH]c2c1` returned a melting point of 212 to 215 °C.

For `Oc1ccccc1-c1nc(-c2ccccc2O)nc(-c2ccccc2O)n1`, the melting point lay within 147 to 149 °C. To `COC(=O)OC(C)OC1=C(C(=O)Nc2ccccn2)N(C)S(=O)(=O)c2ccccc21` (stereo unspecified) belongs 150 to 151 °C; to `Cc1ccc2c(c1)c(N1CCN(C(=O)c3cccs3)CC1)c(C#N)c(=O)n2CCN(C)C`, 110 to 117 °C. Take `CCCOC(=O)C1=C(C)NC(C(OC)OC)=C(C(=O)OC)C1c1ccccc1C#N` (stereo unspecified): the melting point lay in the range of 139 to 141 °C.

With `CCc1cc2c(ccc(=O)n2Cc2ccc(-c3ccccc3S(N)(=O)=O)cc2)c(CC)n1`, the melting point lay within 199 to 200 °C.

`O=C1C[N+]([O-])=C(c2ccccc2F)c2cc(Cl)ccc2N1CC(O)CO` (stereo unspecified): the melting point lay in the range of 165 to 166 °C. To `Cc1noc(NS(=O)(=O)c2ccc(Cc3ccccc3)s2)c1Br` belongs 49 to 50 °C; to `O=C1c2ccccc2C(=O)N1CCCn1c2ccccc2c2nc3ccccc3nc21`, 212 to 214 °C; to `O=C(CS(=O)c1cccs1)C12CC3CC(CC(C3)C1)C2` (stereo unspecified), 114 to 116 °C.

For the compound `Nc1nc(-c2ccc(Cl)cc2)nc(N2CCCC2)n1`, the melting point was 217 to 219 °C. To `Cc1ccc(-c2cc(C=O)nn2-c2ccc(S(N)(=O)=O)cc2)cc1` belongs 196 to 198 °C; to `CCOC(=O)c1cnc2c(OC)csc2c1Cl`, 135 to 137 °C; to `COc1cc(COc2nn(-c3ccccc3)cc2C=O)ccc1OCc1coc(-c2ccco2)n1`, 162 to 163 °C. For `O=C(CC1(c2ccccc2)CCC1)C(=O)Nc1ccc2c(c1)COC2=O`, the melting point lay within 142 to 146 °C. Compound `CC(C)(C)OC(=O)NCC1(O)CCN(Cc2ccccc2)CC1` gave a melting point of 109 to 112 °C.

`CCCC(=O)Oc1cc2c(s1)CCN(C(C(=O)C1CC1)c1ccccc1F)C2` (stereo unspecified) gave a melting point of 84 to 85 °C.

`CCOC(=O)c1c(C)cc2c(c1C)C(=O)O/C2=C\C#N`: the melting point was in the range of 108 to 109 °C.

Regarding `Cc1cc(C2(C(F)(F)F)ON=C(c3ccc(F)cc3)O2)ccc1NC(=O)c1cccc(I)c1C(=O)NC(C)C` (stereo unspecified), the melting point lay in the range of 99 to 112 °C.

In the case of `CC(C)S(=O)(=O)c1cnc(Cl)c(Cl)c1`, the melting point is 146 °C.

As to `CC1CN(Cc2ccccc2)c2c3c(nc4cccc(c24)O1)CCCC3` (stereo unspecified), the melting point was in the range of 152 to 153 °C. Take `CC(C)(CCCOc1ccc(CCC(=O)c2ccc(-c3ccc(C(F)(F)F)cc3)s2)c(Cl)c1Cl)C(=O)O`: the melting point lay within 167 to 169 °C. In turn, `O=C(O)CC(CO)C(=O)c1ccc(Cl)c([N+](=O)[O-])c1` (stereo unspecified) gave a melting point of 210 to 213 °C.

For the compound `N#Cc1ncn2c1[C@@H]1CCN1C(=O)c1sccc1-2`, the melting point lay within 211 to 213 °C. As to `CC(C)(C)OC(=O)N[C@@H]1C(=O)N(O)C1(C)C`, the melting point lay in the range of 148 to 149 °C. To `CC(C)(C)OCOc1cc(NC(=O)NC(=O)c2ccc(C(N)=S)cc2)ccc1OCC(=O)OC(C)(C)C` belongs 198 to 199 °C; to `Cc1cc(-c2ccc(C(F)(F)F)cc2)nc2c(C(=O)Nc3cccc(S(C)(=O)=O)c3)cnn12`, 198 to 200 °C; to `O=C(Nc1ccc(C(F)(F)F)cc1)NC1CCN(S(=O)(=O)c2ccccc2)CC1`, 248 to 252 °C.

Take `CC(C)Nc1c(NCc2ccccc2)cc(C(=O)O)cc1S(N)(=O)=O`: the melting point was in the range of 233 to 234 °C.

Consider `CCNC(=S)NC1=Nc2ccccc2CS1`, for which the melting point fell in the range of 191 to 196 °C. `Cc1nnc(F)c(-c2c(F)cc(F)cc2F)c1-c1ccc2ccccc2c1` showed a melting point of 108 to 110 °C. To `Cn1cc(Br)cc(Nc2cc3c(cn2)CCN(C(=O)OC(C)(C)C)C3)c1=O` belongs 126 to 128 °C; to `CN1Cc2c(-c3noc(C4CC4)n3)ncn2-c2cccc(Cl)c2C1=O`, 165 to 169 °C; to `CC(NC(=O)C1CCNCC1)c1ccccc1` (stereo unspecified), 136 °C.

`O=C(O)CC[C@H](NCC(O)C(O)C(O)C(O)CO)C(=O)O` (stereo partly specified) registered a melting point of 94 °C. On to `CC(C)(C)c1ccc(C(=O)Nc2ccc(OCCO)cc2)cc1`, for which the melting point lay within 136 to 142 °C. Compound `CN(C)c1cc(Br)cc(S(=O)(=O)c2ccc([N+](=O)[O-])cc2)c1` gave a melting point of 166 to 168 °C.

`Cn1c(CCCCl)nc2ccc3ccccc3c21` gave a melting point of 246 to 248 °C. To `CCn1cnc(Cl)c2nc(C3CC3)nc1-2` belongs 140 to 145 °C; to `COc1cc(NS(C)(=O)=O)c(Oc2ccccc2)cc1C(C)=O`, 108 to 110 °C. `COc1ccc(-c2cc3nc(CNCC(C)O)c4ccccc4c3nn2)cc1` (stereo unspecified): the melting point lay within 147 to 149 °C.

The compound `Cc1ccc(S(=O)(=O)C2CCCN(S(=O)(=O)c3ccc(C)cc3)C2)cc1` (stereo unspecified) yielded a melting point of 124 to 142 °C. To `CCCCOC(=O)c1c(-c2ccncc2)[nH]c(-c2ccncc2)c1C` belongs 182 to 186 °C.

In turn, `CCCCc1nccn1Cc1ccc2oc(-c3ccccc3C(=O)O)cc2c1` registered a melting point of 153 to 157 °C. To `O=C(NCCc1ccccn1)c1ccccc1-c1ccccc1CN1C(=O)c2ccccc2C1=O` belongs 155 °C. To `COc1ccccc1CCNC[C@H](O)COc1ncccc1C#N` belongs 97 to 99 °C; to `CNC(Cc1cc(Br)cc(Br)c1N)c1sccc1C` (stereo unspecified), 141 to 143 °C; to `COc1cc2c(cc1O)CCN(Cc1ccccn1)C2`, 137 to 138 °C.

Regarding `CC(=O)NS(=O)(=O)c1cncc([N+](=O)[O-])c1`, the melting point was 176 to 178 °C. Compound `COc1cc(C)nc(NC(=O)NS(=O)(=O)c2cccc3c2OS(=O)(=O)C(C)C3)n1` (stereo unspecified) registered a melting point of 215 to 218 °C. On to `O=C(NC1CCN(CCC2CCOc3ccccc32)CC1)c1cccnc1` (stereo unspecified), for which the melting point was in the range of 126 to 128 °C. `CCCc1nc2c(N)nc3cc(OCCc4ccc(F)cc4)ccc3c2s1` registered a melting point of 145 to 148 °C. To `Cc1ccc(N(C)C)cc1C=O` belongs 64 to 65 °C; to `CCCCC(=O)Nc1cccc(NC(=O)C=C(C)OC)c1`, 115 °C. Take `COC(=O)/C=C/C=C(\C)c1ccc(OC)cc1`: the melting point was 84 to 86 °C. To `CC(=O)Nc1c(C(=O)c2ccccc2)[nH]c2ccc(Cl)cc12` belongs 200 to 201 °C; to `CN(CC#CI)c1nc(CO)cs1`, 118 to 119 °C; to `CC(=O)NC1(c2ccccc2)CCN(CC[C@@H](c2ccc(Cl)c(Cl)c2)[C@@H](O)c2ccnn2-c2ccccc2)CC1` (racemic), 115 to 118 °C. Compound `Nc1cc(Cl)cc(C(F)(F)F)c1N` gave a melting point of 53 °C. To `O=C(O)c1ccccc1C(=O)c1cccc(NC(=O)c2ccn3c2CSC3c2cccnc2)c1` (stereo unspecified) belongs 315 °C. For `CS(=O)(=O)Nc1ccccc1C(=O)C1CCCCC1`, the melting point was 119 to 120 °C. `COC(=O)c1cc(OC)c(OCc2ccccc2)c(OC)c1`: the melting point was in the range of 62 to 65 °C. In turn, `CC(O)=C(C#N)C(=O)Nc1cccc(F)c1` showed a melting point of 136 to 138 °C. To `CCCc1nn(-c2ccc(C(F)(F)F)cn2)cc1CCCCOc1c(CC(=O)O)cccc1OC` belongs 111 to 112 °C; to `Cc1c(-c2cccnc2)n(CCCC=CC(=O)O)c2ccccc12`, 145 to 147 °C. For the compound `OCCN1CCN(CC2CNCCO2)CC1` (stereo unspecified), the melting point fell in the range of 73 to 75.5 °C.

Take `O=S(=O)(Cl)c1cc2c(Br)cccc2o1`: the melting point amounted to 87.2 °C. `CC(SC(=O)c1ccccc1)C(=O)NC(Cc1ccccc1)C(=O)O` (stereo unspecified) came in with a melting point of 173 to 175 °C. Regarding `O=C(C1=NC=CC(Br)(C(=O)Nc2ccccc2)C1)c1ccccc1` (stereo unspecified), the melting point lay within 137 to 138 °C.

As for `CCCn1nc2c(N)nc3ncccc3c2c1CC`, the melting point lay in the range of 303 to 305 °C. For the compound `COc1ccc(S(=O)(=O)Nc2ccc(CCCC(=O)O)nc2)cc1`, the melting point was in the range of 129 to 130 °C. Compound `Nc1ccc(-n2nnn(CCCC3CCCCC3)c2=O)cc1` gave a melting point of 64 to 69 °C. To `CC(=O)NCc1cc([N+](=O)[O-])ccc1C` belongs 133 to 138 °C. To `O=Cc1cc(OCCl)c(O)cc1[N+](=O)[O-]` belongs 160 to 161 °C.

`N=C(N)SCCc1ccc(Cl)c(Cl)c1` had a melting point of 135 to 139 °C. On to `Cc1cc(SC(C)c2ccc3nc(-c4ccc(C(F)(F)F)cc4)sc3c2)ccc1OCC(=O)O` (stereo unspecified), for which the melting point lay within 170 to 173 °C. For the compound `CCOCc1nc2c(N)nc3cc(-c4ccccc4)cnc3c2n1CCCON=C(C)C`, the melting point lay in the range of 134 to 136 °C. With `CCOC1=CC2=CCC3C(CCC4(CC)C(=O)CC(OC(C)=O)C34)C2CC1` (stereo unspecified), the melting point was 189 °C. For `OCCCC1=NN(c2nccs2)C(O)(c2ccc(Cl)cc2)C1` (stereo unspecified), the melting point is 146 to 147 °C. To `O=C(N[C@@H](CS)C(=O)O)C(Sc1nc2cc(Cl)ccc2s1)c1ccccc1` (stereo partly specified) belongs 155 to 158 °C; to `CCCc1nc(C)n2nc(C)nc2c1Cc1ccc(-c2ccccc2C#N)cc1`, 132 °C; to `CCn1nc(OCCCc2ccc(OCCOC)cc2OCc2ccc(Cl)cc2Cl)cc1CCC(=O)O`, 114 to 116 °C. To `CCCCOc1c(C=O)n(C)c(=O)c2cc(Cl)c(Cl)cc12` belongs 114 to 115 °C; to `CON=C(C(=O)O)c1cccc(NC(=O)C(F)(F)F)n1`, 194 to 195 °C.

The compound `COC(=O)C(CC(C)C)NC(=O)C(CC(C)C)NC(=O)OCc1ccccc1` (stereo unspecified) showed a melting point of 80 to 82 °C.

The compound `COCOc1ccccc1-c1cc(-c2ccccc2C(=O)OC)c(C#N)c(N)n1` came in with a melting point of 109 to 110 °C. To `O=C(c1ccccc1)c1cc([N+](=O)[O-])ccc1NC1CCCCC1` belongs 75 °C; to `CC(=O)Cc1ccc(-c2ccc(Cl)cc2)cc1`, 79 to 81 °C; to `CCCCNc1c(C(=O)OCC)cnc2onc(C)c12`, 60 °C. To `COC(=O)c1ccc(CC(C)NCC(O)c2ccc(O)c(CO)c2)cc1C` (stereo unspecified) belongs 82 to 85 °C; to `CCCCCCCOc1ccc(CNc2ccc(C(=O)O)cc2)cc1`, 148 to 152 °C.

For the origin of these results see a melting point compilation (Tetko et al.; mined from patent text by program, amines drawn as free bases though some values may be those of a salt).
